One data set has as its system HepG2 cells. As to the kind of experiment: Annexin V-FITC/PI apoptosis/necrosis flow cytometry. The data set is classed as cell-based, human. The source says:
Apoptotic cells were quantified using double staining with annexin V and PI on flow cytometry. […] The detailed methodology of flow cytometric analysis (annexin V/PI differential apoptosis/necrosis, DNA content–flow cytometry aided cell cycle) is provided in the Supplementary Materials.
Supplementary materials for detailed methodology
Evaluation of 2-thioxoimadazolidin-4-one Derivatives as Potent
Anti-cancer Agents Through Apoptosis Induction and Antioxi-dant Activation: In vitro and In vivo Approaches
Mohamed S. Nafie 1,*, Ahmed I. Khodair 2,*, Hebat Allah Y. Hassan 3, Noha M. Abd El-Fadeal 4, Hanin A. Bogari 5 , Sameh S. Elhady 6 and Safwat A. Ahmed 3,7,* […]
Apoptosis and necrosis cell populations are determined using Annexin V-FITC apop-tosis detection kit (Abcam Inc., Cambridge Science Park, Cambridge, UK) coupled with 2 fluorescent channels flowcytometry. […]
Then, cells are incubated in dark with 0.5 ml of Annexin V-FITC/PI solution for 30 min in dark at room temperature according to manufacturer protocol. After staining, cells are injected via ACEA Novocyte™ flowcytometer (ACEA Biosciences Inc., San Diego, CA, USA) and analyzed for FITC and PI fluorescent signals using FL1 and FL2 signal detector, respectively (λex/em 488/530 nm for FITC and λex/em 535/617 nm for PI). […]
For orientation: A flow cytometer gives signals particle by particle.

Data set [1] deals with Caspase 3 and 9, Bcl-2, PI3K, AKT proteins in HepG2 cells. As to the kind of experiment: Western blot of apoptosis-related proteins. The data set is classed as cell-based, human. The following applies: treated HepG2 vs untreated control, normalized to β-actin. The method, then: Protein expression analysis for phosphorylated/total phosphatidylinositol 3-kinase (PI3K), protein kinase B (Akt), Caspase 3 and 9 proteins, and Bcl-2 was performed using the Western blotting technique to confirm the mechanism of apoptosis induction by compound 4 in HepG2 cells compared to control. Detailed methodology is supported in Supplementary Materials.
For orientation: A western blot detects proteins with antibodies after separation by electrophoresis.

Data set [2] is described as follows: Serum biochemical parameters in mice. The data set is classed as in vivo. Conditions: 6 mg/Kg BW. The method, then: (§1) We randomly divided 50 mice into groups 5 groups (10 mice in each group): normal control (I) (mice injected intraperitoneally with the same volume of solvent for 14 consecutive days); group II, a group of normal mice treated with compound 4 (mice injected intraperitoneally with newly produced compound 4 at a dose of 6 mg/kg per day for 14 days); group III, solid tumor group (mice were implanted with solid tumor); group IV, group were treated with 5-FU (after 10 days of tumor implantation, mice were treated with 6 mg/kg only once); and group V, solid tumor group were treated with compound 4 (after 10 days of tumor implantation, mice were treated with 6 mg/kg only once). after one day of the previous treatment, 10 mice from each group were sacrificed and tumor weight, tumor volume (length and width of solid femoral tumor), blood and liver samples were obtained from each group. A portion of each blood sample taken was used for complete blood count (CBC) and the rest was centrifuged to obtain the serum. Serum was used for biochemical parameter estimation. The livers were rapidly dissected, washed with isotonic saline, and dried. The experiment design is summarized in Supplementary Figure S3.
Evaluation of the activities of aspartate aminotransferase (AST) and alanine aminotransferase (ALT) using a commercial kit (ELITech Clinical Systems, France). The serum albumin level was measured using a kit obtained from STANBIO Company (USA). A commercial kit from the BioDiagnostic Company (Cairo, Egypt) was used to evaluate creatinine and urea levels.

The nature of data set [3]: Hepatic oxidant and antioxidant assessment. Type of data set: in vivo. Conditions: liver homogenate, SEC-bearing mice, 6 mg/kg BW. The method, then:
as §1
In liver tissue homogenate, a standard commercial kit (BioDiagnostic, Cairo, Egypt) was used to evaluate oxidation and antioxidant parameters according to its methodology, as previously published in Nafie et al., 2020 [57]. Lipid peroxidation (MDA) and nitric oxide (NO) are oxidants, while reduced glutathione (GSH), catalase (CAT), and superoxide dismutase (SOD) are antioxidants.

Take `O=C1NC(=S)N(c2ccc(O)cc2)/C1=C/c1cccs1` [Compound 4, (E)-1-(4-Hydroxyphenyl)-5-(thiophen-2-ylmethylene)-2-thioxoimidazolidin-4-one]: the “necrotic cells (Q1, AV−/PI+)” value in the data set on HepG2 cells (HepG2, IC50 = 0.017 μM, 48 h, control 1.05%) is given as 6.08%. The “apoptosis induction versus control” value in the data set on HepG2 cells (HepG2, 11.42% compared to 0.59% in control) worked out at 19.35 fold. Also, the AKT protein level result in data set [1] was “decreased”. Moreover, the BCL2 protein level result in data set [1] is listed as “decreased”. Also, in data set [1], the “Caspase 3 protein level” value is listed as “upregulated”. Besides, the “Caspase 9 protein level” value in data set [1] is “upregulated”. The PI3K protein level entry in data set [1] is “decreased”. The Creatinine in data set [2] (SEC-bearing mice) is reported as 1.0 ± 0.1 mg/dL; in data set [2] (normal mice, normal control 1.6 ± 0.2) it was 1.1 ± 0.2 mg/dL. Further, the Albumin in data set [2] (SEC-bearing mice, SEC control 4.01 ± 0.4) was determined as 3.43 ± 0.1 g/dL; in data set [2] (normal mice, normal control 4.4 ± 0.4) it was 4.4 ± 0.8 g/dL. Moreover, the “Total Protein” value amounted to 7.4 ± 0.2 g/dL in data set [2] (SEC-bearing mice, SEC control 6.6 ± 0.4) and 6.9 ± 1.5 g/dL in data set [2] (normal mice, normal control 6.9 ± 0.4). The Urea in data set [2] (SEC-bearing mice, SEC control 25.2 ± 2.3) came out at 27 ± 1.5 mg/dL; in data set [2] (normal mice, normal control 27.8 ± 2.6), 28.13 ± 2.7 mg/dL. Moreover, the AST in data set [2] (SEC-bearing mice, SEC control 48.9 ± 5.5) is listed as 37.8 ± 8.4 U/L; in data set [2] (normal mice, normal control 37.4 ± 2.8) it was 44.9 ± 10.8 U/L. The ALT in data set [2] (SEC-bearing mice, SEC control 50 ± 2.7) turned out to be 37.4 ± 10.4 U/L; in data set [2] (normal mice, normal control 35.3 ± 3.8), 43.25 ± 7.4 U/L. Further, in data set [3] (SEC control 18.23), the “GSH (antioxidant)” value was 39.27 mg/g Tissue. The “CAT (antioxidant)” value in data set [3] (SEC control 21.69) is on record as 46.9 U/g Tissue. For the same compound, the “SOD (antioxidant)” value in data set [3] (SEC control 27.36) is 48.69 U/g Tissue. In addition, the “NO (oxidative stress)” value in data set [3] (SEC control 79.69) is recorded as 42.38 U/g Tissue. Also, the “MDA (oxidative stress)” value in data set [3] (SEC control 98.39, n = 6) was 73.36 nmol/g Tissue.

Values taken from publication PMC8746798, “Evaluation of 2-Thioxoimadazolidin-4-one Derivatives as Potent Anti-Cancer Agents through Apoptosis Induction and Antioxidant Activation: In Vitro and In Vivo Approaches” (Molecules, 2021).
